Measurements published in PMC9122897, “SHR1032, a novel STING agonist, stimulates anti-tumor immunity and directly induces AML apoptosis” (Scientific Reports, 2022).

Legend:
MOLM-16 cells = test: Annexin V staining by flow cytometry; format: cell-based, human; conditions: MOLM-16, 16 h; compared to cytarabine
Description: (§1) Figure 5 Cell apoptosis induced by SHR1032 in AML cell lines is independent of type I interferon. (a–d) RNA-Seq analysis of THP1-STING-R232, THP1-STING-KO and MV4-11 AML cells treated with 1 µM of SHR1032 for 4 h. […] (d) ANNEXIN V staining analysis with flow cytometry in MV4-11, MOLM-16, THP1-STING-WT and THP1-STING-KO cells. (e) Cell viability analysis by CellTiter Glo in THP1-IRFAR2-WT or -KO cells.
(§2) Cells were incubated with compounds or DMSO for 16 h in a 6-well plate (0.5 × 10^6 cells/well in 2 ml of media). After incubation, cells were collected and washed once in stain buffer (BD Biosciences). Samples were stained with FITC_Annexin V (BioLegend) for 15 min at room temperature. Then the cells were washed twice and resuspended in 200 µl stain buffer, and analyzed with Guava EasyCyte (Millipore).

THP1-STING-KO cells = test: Annexin V staining by flow cytometry; format: cell-based, human; conditions: 16 h
Description: as §1, §2

MV4-11 cells = test: Annexin V staining by flow cytometry; format: cell-based, human; conditions: MV4-11, 16 h; compared to cytarabine
Description: as §1, §2

THP1-STING-WT cells = test: Annexin V staining by flow cytometry; format: cell-based, human; conditions: 16 h, compared to cytarabine
Description: as §1, §2

[1] = tested on: MC38 mouse syngeneic colorectal adenocarcinoma; test: MC38 syngeneic tumor model; format: in vivo, C57BL/6 mouse
Description: Figure 3 Robust cytokine induction and antitumor effects in vivo. (a,b) C57BL/6 mice were inoculated with mouse MC38 colon cancer cells in the left flank. When tumor volumes were 100 mm^3, they received intratumoral (IT) dose of 100 µg of SHR1032 on day 1, 5, 8 and 12 or IT dose of 50 µg ADU-S100 on day 1, 5, and 8, or vehicle, respectively. (a) Tumor volume was measured at different time points. Results are shown as mean tumor volume ± sem. (n = 8 animals per group). (b) Mouse bodyweight was measured at different time points. (c–f) C57BL/6 mice were inoculated with mouse MC38 colon cancer cells in the left flank. When tumor volumes were 100 mm^3, they received one IT dose of 100 µg of SHR1032 or 50 µg ADU-S100, or vehicle. (c) IFNβ, (d) IL-6 and (e) TNFα from both tumor and plasma was measured by ELISA 4 h after. (f) SHR1032 compound concentration in tumors were measured.
Human and Cynomolgous PBMC’s were thawed and spun down in Lymphocyte media (ZENBIO) and resuspended in media to 1.5 x 10^6 cells/ml density. Mouse RAW 264.7 cells were detached from the flask and resuspended in media to 1.5 x 10^6 cells/ml density. Then, 100 µl of media containing the cells was added to each well of a 96-well plate containing compound in 50 µl of media. Plates were incubated for 5 h at 37 °C and supernatant was collected for ELISA analysis. Human and monkey IFN-β protein concentration was measured using human IFN-β Quantikine ELISA Kits (R&D Systems) per manufacture’s protocol. Mouse IFN-β was measured using mouse IFN-β Quantikine ELISA Kits (R&D Systems) per manufacture’s protocol. Mouse TNFα, IFN-β and IL-6 in the tumor lysates and plasma was measured by Quantikine ELISA Kits (R&D Systems) per manufacture’s protocol.
Female C57BL/6 mice, aged between 8 and 10 weeks old, were purchased from Charles River Lab. MC38 mouse colorectal cancer cells were resuspended as single cell solution in PBS at a concentration of 5 × 10^6 cells/ml. One hundred µl of cell suspension were implanted in the right flank of mice subcutaneously. Tumor size was measured by a caliper in three dimensions and its volume was then calculated according to the following formula: Tumor Volume (mm^3) = l * w * h * 0.5236, where l = length, w = width and h = height in mm for a tumor. When the average tumor volume reached around 100 mm^3, the mice were randomly assigned into three groups (n = 8) and each group of mice received one regimen. This day was assigned as day 0 for the study. […] Tumor volume and body weight were measured 3 times per week throughout the study. […] Cytokines and SHR1032 concentration in the plasma and tumor tissues were analyzed. […]

CCn1nc(C)cc1C(=O)Nc1nc2cc(C(N)=O)cc(OC)c2n1CCC[C@H]1COc2cc(C(N)=O)cc3nc(NC(=O)c4cc(C)nn4CC)n1c23 [SHR1032]
apoptosis (Annexin V) (MOLM-16 cells): much higher level of apoptosis | apoptosis (Annexin V) (THP1-STING-KO cells): no effect | apoptosis (Annexin V) (MV4-11 cells): much higher level of apoptosis | apoptosis (Annexin V) (THP1-STING-WT cells): comparable level of apoptosis | tumor growth inhibition ([1]; 100 µg intratumorally on day 1, 5, 8 and 12, compared to the control group): 78% | mouse pharmacokinetic properties ([1]; intratumoral, mouse): favorable mouse pharmacokinetic properties | IFNβ, IL-6 and TNFα induction in tumor and plasma ([1]; one IT dose of 100 µg, 4 h post dosing, ELISA): induced all the three cytokines in both tumors and plasma
